Columns and labels:
Assay type in all cases: cell-based
[1] = molecular target: T1, TLR8 (Homo sapiens, UniProt Q9NR97); assay: PBMC assay for TLR8 (TNFα in supernatants by ELISA); parameters: Peripheral blood mononuclear cells (PBMCs) from human blood were isolated; endogenous in cells; host or cells: human PBMCs; conditions: human PBMCs incubated with compound overnight, MC50 = concentration at which 50% of the maximum induction is seen
T1 sequence (Q9NR97 27-1041): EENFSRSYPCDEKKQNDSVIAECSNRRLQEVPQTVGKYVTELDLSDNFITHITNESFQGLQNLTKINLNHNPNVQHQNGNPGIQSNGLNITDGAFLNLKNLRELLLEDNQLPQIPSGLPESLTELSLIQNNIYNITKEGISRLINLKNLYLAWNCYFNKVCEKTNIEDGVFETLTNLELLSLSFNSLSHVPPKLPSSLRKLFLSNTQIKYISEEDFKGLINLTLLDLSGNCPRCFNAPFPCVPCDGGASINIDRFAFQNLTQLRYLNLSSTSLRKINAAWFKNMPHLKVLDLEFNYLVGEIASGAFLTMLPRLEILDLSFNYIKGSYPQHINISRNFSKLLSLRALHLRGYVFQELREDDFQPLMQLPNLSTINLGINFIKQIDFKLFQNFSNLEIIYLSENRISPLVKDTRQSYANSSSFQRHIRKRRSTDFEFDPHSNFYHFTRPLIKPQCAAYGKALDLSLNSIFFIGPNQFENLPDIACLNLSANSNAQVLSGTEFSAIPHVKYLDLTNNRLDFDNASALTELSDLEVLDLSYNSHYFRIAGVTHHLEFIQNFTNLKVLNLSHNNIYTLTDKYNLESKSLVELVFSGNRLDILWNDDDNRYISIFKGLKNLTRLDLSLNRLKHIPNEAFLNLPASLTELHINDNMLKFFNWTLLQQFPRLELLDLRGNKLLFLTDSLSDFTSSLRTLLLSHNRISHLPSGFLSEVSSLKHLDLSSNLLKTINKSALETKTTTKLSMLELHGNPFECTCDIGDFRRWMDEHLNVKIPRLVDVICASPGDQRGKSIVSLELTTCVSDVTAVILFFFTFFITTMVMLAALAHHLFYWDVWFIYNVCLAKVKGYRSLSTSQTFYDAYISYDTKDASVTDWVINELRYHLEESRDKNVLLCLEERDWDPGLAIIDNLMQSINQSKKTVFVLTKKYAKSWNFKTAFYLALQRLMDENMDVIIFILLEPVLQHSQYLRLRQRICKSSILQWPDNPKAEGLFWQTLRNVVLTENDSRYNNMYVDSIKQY
Procedure: (§1) Peripheral blood mononuclear cells (PBMCs) from human blood were isolated using BD Vacutainer Cell Preparation Tubes with sodium citrate. Cells were incubated with compound overnight. TLR8 activity was assayed by measuring the amount of TNFα in supernatants by ELISA. TLR7 activity was assayed by measuring the amount of IFNα in supernatants by ELISA (R&D Systems). […] The results of this assay are shown below in Tables 2 and 3.
(§2) MC50 numbers are represented as factors of ten, for example, + indicates an MC50 value of ×10^4, or a value in the tens of thousands of nanomolar (nM range); ++ indicates an MC50 value of ×10^3, or a value in the thousands; +++ indicates an MC50 value of ×10^2, or a value in the hundreds; and ++++ indicates an MC50 value of ×10^1 or 10°, or a value in the tens or ones.

[2] = molecular target: T2, TLR7 (Homo sapiens, UniProt Q9NYK1); assay: PBMC assay for TLR7 (IFNα in supernatants by ELISA); parameters: Peripheral blood mononuclear cells (PBMCs) from human blood were isolated; endogenous in cells; host or cells: human PBMCs; conditions: human PBMCs incubated with compound overnight, MC50 = concentration at which 50% of the maximum induction is seen
T2 sequence (Q9NYK1 27-1049): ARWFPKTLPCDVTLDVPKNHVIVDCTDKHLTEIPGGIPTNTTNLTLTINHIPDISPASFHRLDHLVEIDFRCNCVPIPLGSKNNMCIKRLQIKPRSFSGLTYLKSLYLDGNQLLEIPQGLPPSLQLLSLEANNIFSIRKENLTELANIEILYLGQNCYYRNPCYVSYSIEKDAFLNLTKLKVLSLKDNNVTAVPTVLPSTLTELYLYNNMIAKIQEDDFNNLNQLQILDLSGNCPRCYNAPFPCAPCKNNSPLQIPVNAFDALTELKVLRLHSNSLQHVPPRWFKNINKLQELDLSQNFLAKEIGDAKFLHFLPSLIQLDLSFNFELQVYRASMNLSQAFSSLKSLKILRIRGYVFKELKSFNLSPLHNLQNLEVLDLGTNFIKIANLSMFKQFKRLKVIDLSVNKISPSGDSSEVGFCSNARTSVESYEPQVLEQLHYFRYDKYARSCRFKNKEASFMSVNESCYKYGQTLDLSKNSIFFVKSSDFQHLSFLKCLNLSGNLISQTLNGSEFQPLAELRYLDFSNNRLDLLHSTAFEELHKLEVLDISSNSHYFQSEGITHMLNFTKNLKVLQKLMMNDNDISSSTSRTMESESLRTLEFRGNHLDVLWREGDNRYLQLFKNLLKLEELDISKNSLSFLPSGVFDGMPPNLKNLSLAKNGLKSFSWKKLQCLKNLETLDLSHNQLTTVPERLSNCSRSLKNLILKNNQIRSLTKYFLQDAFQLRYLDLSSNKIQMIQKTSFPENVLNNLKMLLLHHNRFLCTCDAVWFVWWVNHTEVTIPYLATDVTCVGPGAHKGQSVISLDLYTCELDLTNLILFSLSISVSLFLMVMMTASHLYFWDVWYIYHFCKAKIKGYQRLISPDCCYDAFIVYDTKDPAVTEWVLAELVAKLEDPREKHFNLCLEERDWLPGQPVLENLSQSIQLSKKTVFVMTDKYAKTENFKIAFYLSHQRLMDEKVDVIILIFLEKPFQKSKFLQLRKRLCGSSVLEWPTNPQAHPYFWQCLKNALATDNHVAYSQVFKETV
Procedure: as §1, §2

[3] = molecular target: T1, TLR8; assay: TLR8 activity, MC50 values (procedure only by reference to Gorden et al. and Zhu et al.); conditions: assay format not given
Excerpt: (§3) Activity of the compounds can be assessed according to procedures described in, e.g., Gorden et al., Journal of Immunology 177, pp. 8164-8170 (2006) and Zhu et al., Molecular Immunology, vol. 45 (11), pp. 3238-3242 (2008).
MC50 values for TLR8 activity are, for example, as shown below: […]

[4] = molecular target: T2, TLR7; assay: TLR7 activity, MC50 values (procedure only by reference to Gorden et al. and Zhu et al.); conditions: assay format not given
Excerpt: as §3
MC50 values for TLR7 activity are, for example, as shown below: […]

Row | Compound | EC50 [1] | EC50 [2] | EC50 [3] | EC50 [4]
1 | CCCN(CCCO)C(=O)C1=Cc2ccc(-c3ccc(C(=O)OCC)cc3)cc2N=C(N)C1 [Compound 190, Ethyl 4-((1E,4E)-2-amino-4-((3-hydroxypropyl)(propyl)carbamoyl)-3H-benzo[b]azepin-8-yl)benzoate] | 100 to 1000 nM | 10000 to 100000 nM | 196 nM | –
2 | CCCN(CCC)C(=O)C1=Cc2ccc(-c3cccc(O)c3)cc2N=C(N)C1 [Compound 194, (1E,4E)-2-amino-8-(3-hydroxyphenyl)-N,N-dipropyl-3H-benzo[b]azepine-4-carboxamide] | 100 to 1000 nM | 1000 to 10000 nM | – | –
3 | CCCN(CCC)C(=O)C1=Cc2ccc(-c3ccc(O)cc3)cc2N=C(N)C1 [Compound 195, (1E,4E)-2-amino-8-(4-hydroxyphenyl)-N,N-dipropyl-3H-benzo[b]azepine-4-carboxamide] | 100 to 1000 nM | 100 to 1000 nM | – | –
4 | CCCN(CCC)C(=O)C1=Cc2ccc(-c3ccccc3C(=O)OCC)cc2N=C(N)C1 [Compound 203, Ethyl 2-((1E,4E)-2-amino-4-(dipropylcarbamoyl)-3H-benzo[b]azepin-8-yl)benzoate] | 100 to 1000 nM | 1000 to 10000 nM | – | –
5 | CCCN(CCCO)C(=O)C1=Cc2ccc(-c3ccccc3C(=O)OCC)cc2N=C(N)C1 [Compound 204, Ethyl 2-((1E,4E)-2-amino-4-((3-hydroxypropyl)(propyl)carbamoyl)-3H-benzo[b]azepin-8-yl)benzoate] | 100 to 1000 nM | 1000 to 10000 nM | – | –
6 | CCCN(CCC)C(=O)C1=Cc2ccc(-c3ccc(C(=O)OC)cc3)cc2N=C(N)C1 [Compound 206, Methyl 4-((1E,4E)-2-amino-4-(dipropylcarbamoyl)-3H-benzo[b]azepin-8-yl)benzoate] | 100 to 1000 nM | 1000 to 10000 nM | – | –
7 | CCCN(CCC)C(=O)C1=Cc2ccc(-c3ccc(C(=O)OCOCC)cc3)cc2N=C(N)C1 [Compound 207, Ethoxymethyl 4-((1E,4E)-2-amino-4-(dipropylcarbamoyl)-3H-benzo[b]azepin-8-yl)benzoate] | 1000 to 10000 nM | 1000 to 10000 nM | – | –
8 | CCCN(CCC)C(=O)C1=Cc2ccc(-c3ccc(C(=O)OCC)c(F)c3)cc2N=C(N)C1 [Compound 210, Ethyl 4-((1E,4E)-2-amino-4-(dipropylcarbamoyl)-3H-benzo[b]azepin-8-yl)-2-fluorobenzoate] | 100 to 1000 nM | 1000 to 10000 nM | – | –
9 | CCCN(CCCO)C(=O)C1=Cc2ccc(-c3ccc(C(=O)OCC)c(F)c3)cc2N=C(N)C1 [Compound 211, Ethyl 4-((1E,4E)-2-amino-4-((3-hydroxypropyl)(propyl)carbamoyl)-3H-benzo[b]azepin-8-yl)-2-fluorobenzoate] | 100 to 1000 nM | 1000 to 10000 nM | – | –
10 | CCCN(CCC)C(=O)C1=Cc2ccc(-c3ccc(C(=O)OC)nc3)cc2N=C(N)C1 [Compound 212, Methyl 5-((1E,4E)-2-amino-4-(dipropylcarbamoyl)-3H-benzo[b]azepin-8-yl)picolinate] | 100 to 1000 nM | 1000 to 10000 nM | – | –
11 | CCCN(CCCO)C(=O)C1=Cc2ccc(-c3ccc(/C=C/C(=O)OCC)cc3)cc2N=C(N)C1 [Compound 220, (E)-Ethyl 3-(4-((1E,4E)-2-amino-4-((3-hydroxypropyl)(propyl)carbamoyl)-3H-benzo[b]azepin-8-yl)phenyl)acrylate] | 100 to 1000 nM | 10000 to 100000 nM | – | –

Now from value to molecule:

Row | EC50 [1] | EC50 [2] | EC50 [3] | EC50 [4] | Compound
12 | 1 to 100 nM | 1000 to 10000 nM | 10 nM | – | CCCN(C[C@@H](C)O)C(=O)C1=Cc2ccc(-c3ccc(C(=O)N4CCCC4)cc3)cc2N=C(N)C1 (single isomer, unassigned) [Compound 106]
13 | 100 to 1000 nM | 1000 to 10000 nM | 104 nM | – | CCCN(CCC)C(=O)C1=Cc2ccc(-c3ccc(C(=O)N(C)C)cc3)cc2N=C(N)C1 [Compound 124, (1E,4E)-2-amino-8-(4-(dimethylcarbamoyl)phenyl)-N,N-dipropyl-3H-benzo[b]azepine-4-carboxamide]
14 | 1 to 100 nM | 1000 to 10000 nM | 4 nM | – | CCCN(CCC)C(=O)C1=Cc2ccc(-c3ccc(C(=O)N4CC[C@@H](O)C4)cc3)cc2N=C(N)C1 [Compound 127, (1E,4E)-2-amino-8-(4-((R)-3-hydroxypyrrolidine-1-carbonyl)phenyl)-N,N-dipropyl-3H-benzo[b]azepine-4-carboxamide]
15 | 1 to 100 nM | 100 to 1000 nM | – | 744 nM | CCCN(CCC)C(=O)C1=Cc2ccc(-c3cncnc3)cc2N=C(N)C1 [Compound 135, (1E,4E)-2-amino-N,N-dipropyl-8-(pyrimidin-5-yl)-3H-benzo[b]azepine-4-carboxamide]
16 | 1 to 100 nM | – | 45 nM | – | CCOC(=O)C1=Cc2ccc(-c3ccncc3)cc2N=C(N)C1 [Compound 143, (1E,4E)-ethyl 2-amino-8-(pyridin-4-yl)-3H-benzo[b]azepine-4-carboxylate]
17 | 100 to 1000 nM | – | 116 nM | – | CCOC(=O)C1=Cc2ccc(-c3ccc(C(=O)N(C)C)cc3)cc2N=C(N)C1 [Compound 154, (1E,4E)-ethyl 2-amino-8-(4-(dimethylcarbamoyl)phenyl)-3H-benzo[b]azepine-4-carboxylate]
18 | 100 to 1000 nM | 100 to 1000 nM | – | 767 nM | CCCN(CC(N)=O)C(=O)C1=Cc2ccc(-c3ccc(C(=O)N4CCCC4)cc3)cc2N=C(N)C1 [Compound 178, (1E,4E)-2-amino-N-(2-amino-2-oxoethyl)-N-propyl-8-(4-(pyrrolidine-1-carbonyl)phenyl)-3H-benzo[b]azepine-4-carboxamide]
19 | 1 to 100 nM | 1000 to 10000 nM | – | – | CCCN(CCCO)C(=O)C1=Cc2ccc(-c3ccc(C(=O)N4CC[C@H](O)C4)cc3)cc2N=C(N)C1 [Compound 182, (1E,4E)-2-amino-N-(3-hydroxypropyl)-8-(4-((S)-3-hydroxypyrrolidine-1-carbonyl)phenyl)-N-propyl-3H-benzo[b]azepine-4-carboxamide]

Reference: US8524702B2, “Substituted benzoazepines as toll-like receptor modulators” (VentiRx Pharmaceuticals, Inc., priority 2009, dated 2013)
